Values quoted from earlier work in paper PMC11246588, “New 1,2,4-oxadiazole derivatives as potential multifunctional agents for the treatment of Alzheimer’s disease: design, synthesis, and biological evaluation” (BMC Chemistry, 2024).

Columns and labels:
Design in all cases: method as in PMID 18550375, PMID 33017743, PMID 36223681, PMID 34752955, PMID 26077890
Conditions in all cases: Fig. 1; ref [50]–[55]; cited from earlier work
Aβ self-aggregation = test system: Aβ self-aggregation
BChE = test system: BChE
hMAO B = test system: hMAO B

Compound | Inhibited Aβ self-aggregation (Aβ self-aggregation) [%] | IC50 (BChE) [nM] | IC50 (hMAO B) [nM]
O=C(CNc1ccc(F)cc1)Nc1ccc(-c2nc(-c3ccnc(Nc4ccc(OC(F)(F)F)cc4)c3)no2)cc1 [IV] | 51.91 | 1280 | 
COc1cc(-c2ccc(-c3nc(-c4ccc5[nH]ncc5c4)no3)cc2)cc(OC)c1OC [VI] |  |  | 52
